Assay results published in EPA's ToxValDB 9.5.
Values after ≈ are worked out from the molar mass of the structure shown.

Tests used:
[1] = subchronic; duration: 56 days; other
[2] = tested on: Bibionidae; details: chronic/long-term; duration: 28 days; other
[3] = tested on: Canidae; details: subchronic
[4] = tested on: Daphnia magna; details: chronic/long-term, duration: 21 days
[5] = tested on: Equus caballus; details: short-term; duration: 14 days; oral; feed; M/F; no effects
[6] = tested on: Gallus gallus; details: for LEL: no effects
[7] = tested on: Oryctolagus sp.; details: F
[8] = tested on: Pleurozium sp.; details: acute; duration: 72 hours; growth
[9] = tested on: Rattus norvegicus
[10] = tested on: Sinapis alba; details: not reported; no effects
[11] = tested on: Sus scrofa; details: short-term; duration: 10 days; Not specified; no effects
[12] = tested on: Tagia sp.; details: chronic/long-term, duration: 56 days
[13] = tested on: Triticum sp.; details: not reported; no effects
[14] = tested on: Vigna radiata var. radiata; details: not reported; no effects
[15] = tested on: Anas platyrhynchos
[16] = tested on: Colinus virginianus
[17] = tested on: Coturnix japonica; details: acute; oral; mortality
[18] = tested on: Chalcophaps sp.; details: subchronic; oral; feed; clinical chemistry
[19] = tested on: Apis mellifera; details: acute, mortality
[20] = tested on: Neomysis kadiakensis; details: acute; duration: 96 hours; mortality
[21] = tested on: Oncorhynchus mykiss
[22] = tested on: Anatidae; details: subchronic; duration: 7 weeks; body weight
[23] = tested on: Bovidae; details: subchronic; duration: 30 days; oral; gavage; histopathology: neoplastic
[24] = tested on: Ictalurus punctatus; details: not reported; mortality
[25] = tested on: Meleagris sp.; details: subchronic; duration: 5 weeks; clinical signs

In the case of CCCCCCCCCCOc1cc2c(=O)c(C(=O)OCC)c[nH]c2cc1OCC [Decoquinate], the NOEC [1] is reported as ≥ 9.2 mg/kg-day, the NOEC [2] is reported as 16.3 mg/kg and the NOEL ([3]; duration: 12 weeks, Beagle, behavior) is reported as 15 mg/kg-day. The NOEC ([4]; no effects) was 35.2 µg/L, the LEL [5] was 6.25 mg/kg-day and the LEL ([6]; short-term, duration: 21 days) was ≤ 150 mg/L. The LEL ([6]; subchronic, duration: 35 days, oral, diet, Chicken) was 400 mg/kg-day, the LEL ([6]; subchronic, duration: 42 days, oral, diet) was 400 mg/kg-day and the NOEL ([7]; developmental, duration: 11 days, oral, capsule, New Zealand, development) was 60 mg/kg-day. For the same compound, the NOAEL ([7]; reproduction developmental, mortality) was 60 mg/kg-day, the NOEC [8] was 73 µg/L and the NOEL ([9]; developmental, duration: 11 days, oral, gavage, F, Sprague-Dawley, development) was 100 mg/kg-day. For the same compound, the NOEC [10] was ≤ 100 mg/kg, the LEL [11] was 80 mg/kg-day and the NOEC ([12]; no effects) was > 1000 mg/kg. For the same compound, the NOEC ([12]; reproduction) was 1000 mg/kg, the NOEC [13] was ≤ 100 mg/kg and the NOEC [14] was ≤ 100 mg/kg.

Work on CNC(=O)Oc1cc(C)c(SC)c(C)c1 [Methiocarb] yielded an LC50 ([15]; short-term, oral, feed, mortality) of 1070 mg/kg, an NOEC ([16]; reproduction developmental, reproduction) of 4.51 mg/kg-day and an LD50 [17] of 5 mg/kg.

Clc1ccc(C(c2ccc(Cl)cc2)C(Cl)(Cl)Cl)cc1 [DDT] showed an NOAEL ([15]; subchronic, mortality) of 0.6 mg/kg-day and an LEL [18] of 0.6 mg/kg-day.

For O=[N+]([O-])/N=C1\NCCN1Cc1ccc(Cl)nc1 [Imidacloprid], the LD50 ([15]; acute, oral, unspecified) was 66 mg/kg-day, the LD50 ([19]; dermal) was 0.081 µg/piece and the NOEC ([19]; dermal) was < 2.5 µg/piece. The LD50 ([19]; duration: 48 hours, dermal) was 0.081 µg/piece, the LD50 ([19]; duration: 48 hours, oral, unspecified) was 0.0037 µg/piece and the LD50 ([19]; duration: 120 hours, dermal) was 0.0251 µg/piece. For the same compound, the LD50 ([19]; oral, unspecified) was 0.0037 µg/piece, the NOAEL ([3]; duration: 90 days, oral, Dog Other, clinical signs) was 7.8 mg/kg-day and the NOAEL ([16]; reproduction developmental) was 9.3 mg/kg-day. For the same compound, the NOEL ([16]; short-term, oral, diet) was 29.4 mg/kg-day, the NOEC ([4]; reproduction) was 1800 µg/L and the LC50 [20] was 0.0341 mg/L (≈ 0.133 µM). The LC50 ([21]; acute, duration: 96 hours, mortality) was > 83 mg/L, the NOEC ([21]; chronic/long-term, duration: 91 days, time to hatch) was 9.02 mg/L and the LD50 ([9]; acute) was 256 mg/kg-day. The NOAEL ([9]; chronic) was 17 mg/kg-day, the NOAEL ([9]; chronic, duration: 2 years, M, histopathology: nonneoplastic) was 5.7 mg/kg-day and the NOAEL ([9]; subchronic, duration: 90 days, oral, histopathology: nonneoplastic) was 9.3 mg/kg-day.

With CC(=O)OC[C@]12C[C@H](OC(=O)CC(C)C)C(C)=C[C@H]1O[C@H]1[C@H](O)[C@H](OC(C)=O)[C@@]2(C)[C@]12CO2 [T-2 toxin] the LOAEL [22] was 40 µg/kg-day, the LOAEL [23] was 0.3 mg/kg-day and the LOAEL ([6]; short-term, duration: 24 days, oral, diet, F, reproduction) was 0.12 mg/kg-day. The LOAEL ([6]; subchronic, duration: 5 weeks, clinical signs) was 0.04 mg/kg-day, the NOAEL [24] was 13 µg/kg-day and the LOAEL [25] was 48 µg/kg-day. The NOAEL ([7]; subchronic, oral, diet, clinical chemistry) was 0.1 mg/kg-day.
